In ChEMBL document CHEMBL1255369, “In vitro susceptibility of isolates of Francisella tularensis types A and B from North America” (2008):
≈ marks a conversion by molar mass, not a printed value.

Legend:
Format in all cases: functional
[1] = (§1) Antimicrobial activity against Francisella tularensis subsp. tularensis after 48 hrs by broth microdilution method
[2] = (§2) Antimicrobial activity against Francisella tularensis subsp. holarctica after 48 hrs by broth microdilution method
[3] = Antimicrobial activity against Francisella tularensis subsp. holarctica LVS after 48 hrs by broth microdilution method
[4] = tested on: Francisella tularensis subsp. tularensis; assay: as §1
[5] = tested on: Francisella tularensis subsp. holarctica; assay: as §2

Compound | MIC [1] | MIC50 [1] | MIC90 [1] | MIC50 [2] | MIC90 [2] | MIC [3] | MIC50 [4] | MIC90 [4] | MIC50 [5] | MIC90 [5]
CC[C@H]1OC(=O)[C@H](C)[C@@H](O[C@H]2C[C@@](C)(OC)[C@@H](O)[C@H](C)O2)[C@H](C)[C@@H](O[C@@H]2O[C@H](C)C[C@H](N(C)C)[C@H]2O)[C@](C)(O)C[C@@H](C)C(=O)[C@H](C)[C@@H](O)[C@]1(C)O [ERYTHROMYCIN] | 0.5 µg/mL (≈ 0.681 µM) | 0.5 µg/mL (≈ 0.681 µM) | 0.5 µg/mL (≈ 0.681 µM) | 2 µg/mL (≈ 2.73 µM) | 2 µg/mL (≈ 2.73 µM) | > 256 µg/mL |  |  |  | 
O=C(N[C@H](CO)[C@H](O)c1ccc([N+](=O)[O-])cc1)C(Cl)Cl [CHLORAMPHENICOL] |  | 1 µg/mL (≈ 3.09 µM) | 2 µg/mL (≈ 6.19 µM) | 2 µg/mL (≈ 6.19 µM) | 2 µg/mL (≈ 6.19 µM) |  |  |  |  | 
C[C@H]1COc2c(N3CCN(C)CC3)c(F)cc3c(=O)c(C(=O)O)cn1c23.C[C@H]1COc2c(N3CCN(C)CC3)c(F)cc3c(=O)c(C(=O)O)cn1c23.O [LEVOFLOXACIN] |  | 0.03 µg/mL | 0.06 µg/mL | 0.03 µg/mL | 0.06 µg/mL |  |  |  |  | 
C[C@H]1c2cccc(O)c2C(=O)C2=C(O)[C@]3(O)C(=O)C(C(N)=O)=C(O)[C@@H](N(C)C)[C@@H]3[C@@H](O)[C@@H]21.O [DOXYCYCLINE] |  | 0.5 µg/mL | 1 µg/mL | 1 µg/mL | 2 µg/mL |  |  |  |  | 
CN[C@@H]1[C@H](O[C@H]2[C@H](O[C@H]3[C@H](O)[C@@H](O)[C@H](N=C(N)N)[C@@H](O)[C@@H]3N=C(N)N)O[C@@H](C)[C@]2(O)C=O)O[C@@H](CO)[C@H](O)[C@H]1O [STREPTOMYCIN] |  | 1 µg/mL (≈ 1.72 µM) | 2 µg/mL (≈ 3.44 µM) | 1 µg/mL (≈ 1.72 µM) | 2 µg/mL (≈ 3.44 µM) |  |  |  |  | 
CN(C)[C@@H]1C(O)=C(C(N)=O)C(=O)[C@@]2(O)C(O)=C3C(=O)c4c(O)cccc4[C@@](C)(O)[C@H]3C[C@@H]12 [TETRACYCLINE] |  | 0.5 µg/mL (≈ 1.13 µM) | 1 µg/mL (≈ 2.25 µM) | 0.5 µg/mL (≈ 1.13 µM) | 1 µg/mL (≈ 2.25 µM) |  |  |  |  | 
O=C(O)c1cn(C2CC2)c2cc(N3CCNCC3)c(F)cc2c1=O [CIPROFLOXACIN] |  | 0.015 µg/mL (≈ 0.0453 µM) | 0.03 µg/mL (≈ 0.0905 µM) | 0.03 µg/mL (≈ 0.0905 µM) | 0.06 µg/mL (≈ 0.181 µM) |  |  |  |  | 
GENTAMICIN |  |  |  |  |  |  | 0.06 µg/mL | 0.12 µg/mL | 0.12 µg/mL | 0.25 µg/mL
